Data published in paper PMC6438731, “Extrasynaptic δ‐GABAA receptors are high‐affinity muscimol receptors” (Journal of Neurochemistry, 2019).
Read-outs that look alike come from different tables or passages of the source.

How the values were obtained:
[1] = system: different GABAAR subtypes; assay: Affinity of muscimol compared with GABA across GABAAR subtypes; settings: across the board for different GABAAR subtypes
α4β3δ receptors [2] = molecular target: α4β3δ receptors; set-up: method as in Stórustovu and Ebert 2006; settings: recombinantly expressed α4β3δ receptors, ref Stórustovu and Ebert 2006; read-out: muscimol EC50; cited from earlier work
α1βγ2 GABAARs = system: α1βγ2 GABAARs; set-up: method as in Karim et al. 2013; settings: ref Karim et al. 2013; cited from earlier work
α6β3δ receptors = molecular target: α6β3δ receptors; set-up: method as in Stórustovu and Ebert 2006; settings: recombinantly expressed α6β3δ receptors, ref Stórustovu and Ebert 2006; read-out: muscimol EC50; cited from earlier work
[3] = molecular target: T1, recombinant α4β3δ receptors (Homo sapiens, UniProt O14764+P28472+P48169); assay: Muscimol currents, two electrode voltage clamp in Xenopus oocytes, α4β3δ; type: cell-based
T1 construct: expressed in transfected cells; host or cells: Xenopus laevis oocytes injected with cRNA
T1 sequence (P48169 36-554): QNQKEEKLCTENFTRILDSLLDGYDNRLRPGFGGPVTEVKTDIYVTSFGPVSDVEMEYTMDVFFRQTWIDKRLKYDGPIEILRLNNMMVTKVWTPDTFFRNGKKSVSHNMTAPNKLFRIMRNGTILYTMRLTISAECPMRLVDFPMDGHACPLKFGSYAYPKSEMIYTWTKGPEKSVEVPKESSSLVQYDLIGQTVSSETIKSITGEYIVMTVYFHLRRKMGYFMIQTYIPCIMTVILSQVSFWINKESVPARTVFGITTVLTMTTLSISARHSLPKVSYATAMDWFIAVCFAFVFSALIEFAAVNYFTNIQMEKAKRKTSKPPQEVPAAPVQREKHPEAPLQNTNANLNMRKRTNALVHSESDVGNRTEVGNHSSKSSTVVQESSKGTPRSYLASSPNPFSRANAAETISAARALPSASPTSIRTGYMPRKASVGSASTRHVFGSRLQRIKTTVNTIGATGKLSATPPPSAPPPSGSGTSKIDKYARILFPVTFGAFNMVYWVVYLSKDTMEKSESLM
T1 sequence (P28472 26-473): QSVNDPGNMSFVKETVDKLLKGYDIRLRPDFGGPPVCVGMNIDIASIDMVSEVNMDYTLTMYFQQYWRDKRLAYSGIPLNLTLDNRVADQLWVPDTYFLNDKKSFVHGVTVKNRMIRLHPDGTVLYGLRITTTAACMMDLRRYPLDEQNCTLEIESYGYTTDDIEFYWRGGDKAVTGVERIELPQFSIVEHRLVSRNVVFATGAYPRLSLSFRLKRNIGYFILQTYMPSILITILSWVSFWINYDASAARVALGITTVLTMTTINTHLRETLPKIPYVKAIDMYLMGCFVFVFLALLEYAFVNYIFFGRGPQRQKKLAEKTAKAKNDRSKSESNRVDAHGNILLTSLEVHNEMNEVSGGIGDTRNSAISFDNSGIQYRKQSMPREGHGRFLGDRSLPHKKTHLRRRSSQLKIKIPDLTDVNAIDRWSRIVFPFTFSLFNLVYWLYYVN
T1 sequence (O14764 25-452): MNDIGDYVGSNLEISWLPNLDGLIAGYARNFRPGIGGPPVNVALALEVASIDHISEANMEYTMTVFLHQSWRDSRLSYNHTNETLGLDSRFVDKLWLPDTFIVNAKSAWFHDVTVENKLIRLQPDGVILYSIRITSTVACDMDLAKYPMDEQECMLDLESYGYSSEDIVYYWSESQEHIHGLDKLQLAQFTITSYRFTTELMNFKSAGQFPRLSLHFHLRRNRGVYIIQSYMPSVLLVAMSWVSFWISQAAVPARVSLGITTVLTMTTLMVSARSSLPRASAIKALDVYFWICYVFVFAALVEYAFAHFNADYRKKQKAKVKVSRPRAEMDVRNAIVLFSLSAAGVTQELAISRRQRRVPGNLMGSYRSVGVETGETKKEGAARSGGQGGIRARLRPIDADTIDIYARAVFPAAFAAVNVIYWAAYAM
Description: (§1) Human α4, α6, β3, and δ cDNA clones for oocyte expression were made by PCR amplification of the coding region (NcoI site introduced with the amplifying 5′ oligonucleotide at the ATG initiation codon) and a HindIII (or SpeI) containing oligo) and cloning it into a NcoI‐HindIII (or SpeI) cut vector backbone derived from pEGFP‐N1 (Addgene 6085‐1). The entire transcribed region was confirmed by sequencing to ensure that protein sequences conform to consensus sequences found in the RefSeq database (https://www.ncbi.nlm.gov/RefSeq). Plasmids were linearized with NotI (New England Biolabs) and cRNA was transcribed, using T7 RNA polymerase (Ambion, mMESSAGE mMACHINE T7 Transcription Kit, Ambion Austin TX, USA, Cat. No. 1344). Xenopus laevis (Nasco, product number LM00531) oocytes were prepared from oocyte lobes shared by Dr. Olcese (UCLA, Anesthesiology). The oocytes were injected with 2 ng of each α6 and β3 subunit cRNA alone or together with 10 ng δ cRNA. Currents were measured 5–10 days after injection by two electrode voltage clamp using an Axoclamp 2B amplifier and pCLAMP software. Drug solutions were applied in ND96 (in mM 96 NaCl, 2 KCl, 1.8 CaCl2, 1 MgCl2, 5 HEPES pH 7.4) by gravity perfusion with bath exchange time of about 2 s. Muscimol was prepared as an aqueous 100 mM stock solution.

α4β3δ receptors [4] = molecular target: α4β3δ receptors; set-up: method as in Mortensen et al. 2010; settings: recombinantly expressed α4β3δ receptors, ref Mortensen et al. 2010; read-out: muscimol EC50; cited from earlier work
[5] = molecular target: T2, recombinant α4β3 receptors (Homo sapiens, UniProt P28472+P48169); assay: Muscimol currents, two electrode voltage clamp in Xenopus oocytes, α4β3; type: cell-based; settings: α4β3‐injected oocytes, without δ
T2 construct: expressed in transfected cells; host or cells: Xenopus laevis oocytes injected with cRNA
T2 sequence (P48169 36-554): as the sequence (P48169 36-554) above
T2 sequence (P28472 26-473): as the sequence (P28472 26-473) above
Description: as §1

**Q.** Which results are given for `NCc1cc(=O)[nH]o1` [muscimol]?
**A.** higher affinity than GABA [1]: 100–1000 times; EC50 (α4β3δ receptors [2]): 2280 nM; EC50 (α1βγ2 GABAARs): ~1000 nM; EC50 (α6β3δ receptors): 160 nM; EC50 ([3]; α4β3δ in Xenopus oocytes, estimated/approximate, read-out: EC50 of the high‐muscimol affinity (slowly deactivating) current component): 1 to 2 nM; threshold muscimol concentration evoking currents ([3]; α4β3δ‐injected oocytes): 0.1 nM; EC50 (α4β3δ receptors [4]): 200 nM; threshold muscimol concentration evoking currents [5]: about 30 nM
